Source: patent US20240360179A1, “STAPLED PEPTIDES AND METHODS THEREOF” (FOG PHARMACEUTICALS, INC., priority 2021, published 2024)
Read-outs that look alike come from different tables or passages of the source.

Legend:
[1] = molecular target: T1, full-length B-Catenin (Uniprot ID P35222) (Homo sapiens, UniProt P35222); type: binding
T1 construct: 10 nM full-length B-Catenin (Uniprot ID P35222)
T1 sequence (P35222 1-781): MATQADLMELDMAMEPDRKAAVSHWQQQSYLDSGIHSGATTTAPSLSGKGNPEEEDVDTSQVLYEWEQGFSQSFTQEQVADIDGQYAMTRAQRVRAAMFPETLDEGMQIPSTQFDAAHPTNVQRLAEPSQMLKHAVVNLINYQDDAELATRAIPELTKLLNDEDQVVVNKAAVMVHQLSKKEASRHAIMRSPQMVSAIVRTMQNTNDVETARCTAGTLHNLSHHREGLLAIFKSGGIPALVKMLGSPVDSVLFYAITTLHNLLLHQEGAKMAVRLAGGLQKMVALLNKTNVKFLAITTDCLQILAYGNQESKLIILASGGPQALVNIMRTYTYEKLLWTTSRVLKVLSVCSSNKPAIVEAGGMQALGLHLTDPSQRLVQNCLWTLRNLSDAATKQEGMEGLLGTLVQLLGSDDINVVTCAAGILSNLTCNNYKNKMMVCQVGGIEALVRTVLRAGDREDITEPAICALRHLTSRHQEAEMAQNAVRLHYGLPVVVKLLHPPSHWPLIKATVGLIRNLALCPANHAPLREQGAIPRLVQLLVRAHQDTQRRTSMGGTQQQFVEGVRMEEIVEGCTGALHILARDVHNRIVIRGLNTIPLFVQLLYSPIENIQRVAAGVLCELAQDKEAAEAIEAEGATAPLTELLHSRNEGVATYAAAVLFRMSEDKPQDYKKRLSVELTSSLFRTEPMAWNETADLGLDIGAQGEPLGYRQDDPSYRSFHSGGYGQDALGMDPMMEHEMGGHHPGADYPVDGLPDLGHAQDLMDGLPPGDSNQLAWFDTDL

[2] = molecular target: T2, TCF/LEF luciferase reporter in DLD1 cells (Homo sapiens, UniProt P35222); experiment: TCF reporter assay in DLD1 cells (4% or 20% FBS); type: cell-based
T2 sequence (P35222 2-781): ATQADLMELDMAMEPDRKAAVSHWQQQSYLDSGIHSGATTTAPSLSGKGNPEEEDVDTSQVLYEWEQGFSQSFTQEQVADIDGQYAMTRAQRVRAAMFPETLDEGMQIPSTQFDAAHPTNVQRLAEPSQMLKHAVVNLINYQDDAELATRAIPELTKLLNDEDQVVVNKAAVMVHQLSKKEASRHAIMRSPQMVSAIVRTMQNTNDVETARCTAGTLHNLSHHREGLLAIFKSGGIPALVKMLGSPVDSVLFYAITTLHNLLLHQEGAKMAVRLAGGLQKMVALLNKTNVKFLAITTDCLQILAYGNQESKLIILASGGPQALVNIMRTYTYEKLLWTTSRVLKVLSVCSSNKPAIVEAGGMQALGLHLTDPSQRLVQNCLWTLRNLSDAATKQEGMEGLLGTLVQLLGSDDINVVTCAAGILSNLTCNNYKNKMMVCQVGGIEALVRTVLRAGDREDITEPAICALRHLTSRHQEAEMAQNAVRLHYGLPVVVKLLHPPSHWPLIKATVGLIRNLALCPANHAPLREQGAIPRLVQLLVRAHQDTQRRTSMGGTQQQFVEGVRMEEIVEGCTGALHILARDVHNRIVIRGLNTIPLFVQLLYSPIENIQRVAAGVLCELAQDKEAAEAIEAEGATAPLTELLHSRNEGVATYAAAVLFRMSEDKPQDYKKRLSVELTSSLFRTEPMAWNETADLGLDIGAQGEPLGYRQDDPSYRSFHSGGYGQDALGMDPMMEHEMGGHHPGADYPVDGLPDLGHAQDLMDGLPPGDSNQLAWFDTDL

[3] = molecular target: T3, beta-catenin/TCF4 interaction (Homo sapiens, UniProt P35222); type: cell-based; details: read-out: NanoBRET Abs IC50
T3 construct: host or cells: HEK293
T3 sequence (P35222 1-781): T1 sequence (P35222 1-781)

COLO320DM cells = experiment: COLO320DM proliferation assay (CellTiter-Glo); type: cell-based, human; details: read-out: COLO320DM Proliferation Abs IC50
Method in brief: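 COLO320DM cells, 250 cells/well in RPMI-1640 with 4% FBS, attached 18-22 h, then exposed 96 h at 37 °C, 5% CO2 to 7-point 1/2 dilutions from 20 uM to 313 nM. Viability by CellTiter-Glo luminescence; IC50 derived from the dose curve.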

[4] = read-out: DLD1 4% Abs IC50, DLD1 TCF reporter, 4% FBS
[5] = read-out: beta-catenin TCF4 competition FP assay IC50

| Substance | IC50 ([1]; read-out: beta-Catenin FP IC50) [nM] | IC50 [2, 4] [nM] | further results |
| --- | --- | --- | --- |
| Ac-PL3-Asp-Npg-B5-Asp-3COOHF-Aib-Ala-Phe-Lys*3-PyrS2-3Thi-BztA-GlnR*3-Leu-aThr-Ala-NH2 [I-501] | < 50 |  |  |
| Ac-PL3-Asp-Npg-B5-Asp-TfeGA-Ala-Ala-Phe-Lys*3-PyrS2-2F3MeF-BztA-GlnR*3-Leu-NH2 [I-128] |  | 1000 to 5000 |  |
| Ac-PL3-Asp-Npg-B5-Asp-3COOHF-Ala-Ala-Phe-sAla*3-PyrS2-3Thi-BztA-TriAzLys*3-NH2 [I-24] |  | 1000 to 5000 |  |
| 4pentenyl-MePro-Asp-B5-Ala-Asp-3COOHF-Ala-Ala-Phe-PyrS2-Lys*3-3Thi-BztA-Ala-GlnR*3-NH2 [I-932] |  |  | IC50 ([1]; competition fluorescence polarization, read-out: beta-Catenin FP IC50): > 1000 nM |
| Ac-PL3-Asp-Npg-B5-Asp-3COOHF-Npg-Ala-Phe-Lys*3-PyrS2-2F3MeF-BztA-GlnR*3-Leu-NH2 [I-109] |  | 1000 to 5000 | IC50 [3]: > 10000 nM |
| Ac-PL3-Asp-Npg-B5-Asp-TfeGA-Ala-Ala-Phe-Lys*3-PyrS2-2F3MeF-BztA-GlnR*3-Val-NH2 [I-129] |  | 1000 to 5000 |  |
| Ac-PL3-Asp-Leu-B5-Asp-3COOHF-Ala-Ala-Phe-dLys*3-PyrS2-3Thi-BztA-GlnR*3-NH2 [I-10] | < 50 |  |  |
| Ac-PL3-Asp-Npg-B5-Asp-3COOHF-Aib-Ala-Phe-Lys*3-PyrS2-2F3MeF-BztA-GlnR*3-Ala-NH2 [I-69] | < 50 | ≤ 1000 | IC50 (COLO320DM cells): ≤ 10000 nM |
| Ac-PL3-Asp-Npg-B5-Asp-3COOHF-Aib-Ala-Phe-TriAzLys*3-PyrS2-3Thi-BztA-sCH2S*3-Ala-NH2 [I-262] |  | ≤ 1000 | IC50 (COLO320DM cells): ≤ 10000 nM |
| Ac-PL3-Asp-Npg-B5-Asp-3COOHF-Aib-Ala-Phe-[2_6-naph]Cys-PyrS2-3Thi-BztA-Cys-Ala-NH2 [I-566] |  |  | IC50 [1, 5]: 58 nM; IC50 ([2]; read-out: beta-catenin TCF4 DLD1 cell reporter assay IC50): > 20000 nM |
| Ac-PL3-Asp-Npg-B5-Asp-3COOHF-DaMeS-Ala-Phe-Lys*3-PyrS2-3Thi-BztA-GlnR*3-Ala-NH2 [I-437] | < 50 |  |  |
| Ac-PL3-Asp-Npg-B5-Asp-3COOHF-Npg-Ala-Phe-Lys*3-PyrS2-2F3MeF-BztA-GlnR*3-Ala-NH2 [I-99] |  | ≤ 1000 |  |
| Ac-PL3-Asp-Leu-B5-Asp-3COOHF-Ala-Ala-Phe-Lys*3-PyrS2-3Thi-BztA-GlnR*3-NH2 [I-12] | < 50 |  |  |
| Ac-PL3-Asn-Npg-B5-Asp-3COOHF-Aib-Ala-Phe-Lys*3-PyrS2-2F3MeF-BztA-GlnR*3-Leu-Ser-NH2 [I-144] |  | 1000 to 5000 |  |
| Ac-PL3-Asp-Npg-B5-Asp-3COOHF-Aib-Ala-Phe-[pXyl]Cys-PyrS2-2F3MeF-BztA-Cys-Ala-NH2 [I-377] |  |  | IC50 [1, 5]: 93 nM |
| Ac-PL3-Asp-Npg-B5-Asp-3COOHF-Ala-Ala-Phe-Lys*3-PyrS2-3Thi-BztA-GlnR*3-Prool [I-64] |  | 1000 to 5000 | IC50 (COLO320DM cells): 10000 to 20000 nM |
| Ac-PL3-Asp-Npg-B5-Asp-3COOHF-Aib-Ala-Phe-Lys*3-PyrS2-3Thi-BztA-GlnR*3-Glu-Ala-NH2 [I-342] |  |  | IC50 ([2]; read-out: DLD1 4% Abs IC50, DLD1 TCF reporter, 4% FBS, absolute IC50): ≤ 1000 nM |
| Ac-PL3-Asp-Leu-B5-Asp-3COOHF-Ala-Ala-Phe-GlnR*3-PyrS2-3Thi-BztA-Lys*3-NH2 [I-16] | < 50 |  |  |
| Ac-PL3-Asp-Npg-B5-Asp-3COOHF-Aib-Ala-Phe-TriAzLys*3-PyrS2-Phe-BztA-sAbu*3-Ala-NH2 [I-420] | < 50 |  |  |
| Ac-PL3-Asp-Npg-B5-Asp-3COOHF-Aib-Ala-Phe-Lys*3-PyrS2-nLeu-BztA-GlnR*3-Ala-NH2 [I-272] | < 50 |  |  |
| Ac-PL3-Asp-Npg-B5-Asp-3COOHF-Cpg-Ala-Phe-Lys*3-PyrS2-2F3MeF-BztA-GlnR*3-Leu-Ser-NH2 [I-139] |  | ≤ 1000 |  |
